Test results as given in article PMC12603070, “A high-throughput screening approach to discover potential colorectal cancer chemotherapeutics: repurposing drugs to identify novel disruptors of 14-3-3 proteins” (Cell Death & Disease, 2025).
Read-outs that look alike come from different tables or passages of the source.

Columns and labels:
HT-29 cells = test: Hoechst/propidium iodide cell death assay in HT-29; format: cell-based, human; settings: for %Cell death HT-29: time not given; for cytotoxicity at 20 µM: Homo sapiens
Excerpt: (§1) A high-content imaging system (PerkinElmer; Operetta CLS), was used to quantify cell death and apoptosis by calculating the number of propidium iodide-positive cells relative to Hoechst-positive cells, and the number of Annexin V-positive cells relative to Hoechst-positive cells, respectively.

[1] = tested on: BAD translocation to mitochondria in Caco-2 and HT-29 cells; test: Confocal imaging of BAD-mCitrine translocation to mitochondria in CRC cells; format: cell-based, human; settings: 2 µM, 24 h post-treatment
Protocol: To visualize BAD translocation, 35 mm glass-bottom dishes (ibidi, Gräfelfing, Germany; #81158) were coated with 0.1 mg/mL Poly-D-lysine hydrobromide for 2 h at 37 °C. After coating, dishes were washed twice with sterilized water. Subsequently, cells transfected with BAD-mCitrine were seeded at a density of 20,000 cells per dish and incubated for 24 h to allow for cell attachment. For live-cell imaging, cells were then incubated for 1 h with the mitochondrial membrane potential dye tetramethylrhodamine ethyl ester (TMRE, Invitrogen; #T668) at a final concentration of 100 nM, according to the manufacturer’s instructions. Images were acquired on a Zeiss (Oberkochen, Germany) LSM-900 Airyscan inverted confocal microscope equipped with an environmental incubation system, laser lines including 488 and 561 nm, and an oil immersion 60×/1.40 Plan achromat objective. The signal from the YFP fluorophore (ex. 488 nm, det. 525–542 nm) and the TMRE (ex. 561 nm, det. 600–700 nm) were collected in super-resolution mode. The cell viability dye, DRAQ (BioLegend, California, USA; #424101), was added to the medium at a 1:1000 dilution from the commercial stock and incubated at room temperature for 30 min prior to live-cell imaging. To quantify the colocalization of BAD-mCitrine and the mitochondria labeled with the TMRE, the JACoP plugin in ImageJ was employed. A correlation analysis was performed based on Pearson’s coefficient between pixel-gray values for the two channels.

[2] = molecular target: T1, 14-3-3ζ:BAD-112-136F interactions (Homo sapiens, UniProt P63104); test: BRET sensor screen for disruption of 14-3-3ζ-Rluc8:BAD-112-136F-mCitrine in living NIH-3T3 cells; format: cell-based, murine; parameters: inhibition: dose or concentration left out as unconfirmed; settings: for inhibition / inhibition at 20 µM: NIH3T3, 3 h; for inhibition: NIH-3T3 cells
T1 construct: expressed in transfected cells; host or cells: NIH-3T3 fibroblasts, bi-directional pBI-CMV1 plasmid
T1 sequence (P63104 1-245): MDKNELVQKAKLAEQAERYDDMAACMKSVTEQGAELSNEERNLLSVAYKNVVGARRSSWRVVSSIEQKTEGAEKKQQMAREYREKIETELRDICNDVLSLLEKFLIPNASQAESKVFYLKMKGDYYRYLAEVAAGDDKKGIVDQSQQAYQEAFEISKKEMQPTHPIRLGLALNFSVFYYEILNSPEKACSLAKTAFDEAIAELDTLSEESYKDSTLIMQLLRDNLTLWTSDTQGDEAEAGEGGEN
Procedure, shortened: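 NIH-3T3 cells were transfected with the BRET sensor two days beforehand, then replated on poly-L-ornithine-coated plates and grown 24 h at 37 °C. Medium was then replaced with Krebs buffer (pH 7.4). Z′-score was calculated to judge HTS robustness.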

HT-29 and Caco-2 cells = test: Annexin V/propidium iodide apoptosis and caspase dependence (Z-VAD-FMK) in HT-29 and Caco-2; format: cell-based, human; settings: for Kinetics of induction of cell death and apoptosis: time courses of PI and Annexin V incorporation, HT-29 and Caco-2, 5 and 10 µM
Protocol: Cells were plated at a density of 20,000 cells/well into 96-well plates (PerkinElmer; #6055302) and incubated overnight at 37 °C before the addition of the drugs. One hour prior to imaging, Hoechst 33342 (Invitrogen, #H3570) and propidium iodide (Invitrogen; #P3566) were added to the wells to achieve final concentrations of 50 ng/ml and 0.5 μg/ml, respectively. To measure apoptosis, AlexaFluor 488-conjugated Annexin V (ThermoFisher, Massachusetts, USA; #A13201) was also added at a dilution of 1:400 from the commercial stock. A high-content imaging system (PerkinElmer; Operetta CLS), was used to quantify cell death and apoptosis by calculating the number of propidium iodide-positive cells relative to Hoechst-positive cells, and the number of Annexin V-positive cells relative to Hoechst-positive cells, respectively. To assess caspase-dependent apoptosis, cells were pre-treated for 30 min with the caspase inhibitor Z-VAD-FMK (BD Biosciences, New Jersey, USA; #550377; 20 μM) or the negative control Z-FA-FMK (BD Biosciences; #550411; 20 μM) prior to the incubation of drugs.

Caco-2 cells = format: cell-based
Excerpt: as §1

[3] = HT-29, 24 h, 20 µM, 24 h, read-out: Percentage of cell death % 24h HT-29
[4] = HT-29, 48 h, HT-29, 48h, 20 μM, read-out: Percentage of cell death % 48h, HT-29
[5] = hits from the primary screen, read-out: BRET reduction on NIH-3T3
[6] = NIH-3T3 expressing BRET sensor, 20 µM, 3 h, read-out: BRET reduction on NIH-3T3
[7] = lomitapide-treated Caco-2 cells, 10 μM, 48 h

| Compound | %Cell death HT-29 (HT-29 cells; HT-29) [%] | cytotoxicity at 20 µM (HT-29 cells; [3]) [%] | cytotoxicity at 20 µM (HT-29 cells; [4]) [%] | Mitochondrial translocation of BAD [1] | inhibition [2, 5] [%] | inhibition at 20 µM [2, 6] [%] | Kinetics of induction of cell death and apoptosis (HT-29 and Caco-2 cells) | %Cell death Caco-2 (Caco-2 cells; Caco-2) [%] | inhibition at 20 µM ([2]; read-out: BRET reduction on NIH-3T3, NIH-3T3 cells, hits from the primary screen) [%] | inhibition at 20 µM ([2]; read-out: BRET reduction on NIH-3T3, NIH-3T3 expressing BRET sensor, 20 µM, 3 h) [%] | Effect on BRET, dose-response ([2]; NIH-3T3 expressing BRET sensor, 3 h post-treatment) | Effect of Z-VAD-FMK on annexin V incorporation (HT-29 and Caco-2 cells; [7]) | Percentage of cell death % 24h CACO-2 (Caco-2 cells; 20 µM, 24 h) [%] | Percentage of cell death % 48h, Caco-2 (Caco-2 cells; Caco-2, 48h, 20 μM) [%] | %Cell death Caco-2 (Caco-2 cells; Caco-2, time not given, text says 48 h) [%] | Effect of Z-VAD-FMK on propidium iodide incorporation (Caco-2 cells; [7]) |
| --- | --- | --- | --- | --- | --- | --- | --- | --- | --- | --- | --- | --- | --- | --- | --- | --- |
| OC1(c2ccc(Cl)c(C(F)(F)F)c2)CCN(CCCC(c2ccc(F)cc2)c2ccc(F)cc2)CC1 [Penfluridol] | 92.2 | 77.5 | 92.2 | Mitochondrial translocation of BAD was observed | 53.8 | 53.8 | more rapidly than lomitapide | 90.0 |  |  |  |  |  |  |  |  |
| CCCCCCCCc1ccc(CCC(N)(CO)CO)cc1 [Fingolimod (FTY720), Fingolimod] | 69.1 | 13.5 | 69.1 |  |  |  |  | 67.9 | 34.9 | 34.9 | significantly reduced BRET in a dose-dependent manner |  |  |  |  |  |
| CC(C)(C)c1ccc(C(O)CCCN2CCC(C(O)(c3ccccc3)c3ccccc3)CC2)cc1 (stereo not shown) [Terfenadine] | 89.6 | 81.9 | 89.6 | Mitochondrial translocation of BAD was observed | 45.6 | 45.6 | more rapidly than lomitapide | 79.7 |  |  |  |  |  |  |  |  |
| O=C(NC1CCN(CCCCC2(C(=O)NCC(F)(F)F)c3ccccc3-c3ccccc32)CC1)c1ccccc1-c1ccc(C(F)(F)F)cc1 [Lomitapide] | 72.9 | 29.5 | 72.9 | Mitochondrial translocation of BAD was observed | 40.8 | 40.8 |  |  |  |  |  | preventing annexin V incorporation | 66.0871 | 81.7295 | 81.7 | no effect |
